# Results published in patent publication US20260008776A1 (HANGZHOU POLYMED BIOPHARMACEUTICALS, INC., priority 2023, published 2026).
# Where two headings read alike, the source gives them in different places.
# Tests used:
# [1] = High-pressure property test; format: physicochemical; settings: hydraulic pressure 10 tons, 5 minutes
# From the text: The resulting solid was characterized by XRPD and other methods to evaluate its crystal form stability under high-pressure conditions.
# [2] = Simulated granulation test (dry and wet grinding); format: physicochemical; settings: dry grinding 30 minutes; wet grinding with ethanol 30 minutes
# From the text: The purpose was to determine whether polymorphs, solvates, or amorphous forms were readily generated.
# [3] = Crystal form transformation, suspension competition experiments; format: physicochemical; settings: C, D, E, RT; for XRPD of solid after suspension competition: crystal forms A, G together (20 mg each), EtOH/H2O 1/1 (v/v); for XRPD: suspension competition of crystal forms A, G (20 mg each), DMSO/EtOH 1/8 (v/v) saturated solution 15 V
# Method: In order to study the transformation relationship between various crystal forms and prepare various crystal forms under repeated conditions, a series of suspension competition experiments were carried out on crystal forms A, C, D, E, and G in different solvent systems. The specific experimental steps are as follows:
# 20 mg of each of crystal forms A, C, D, E, and G were weighed into 5 mL glass vials, and solvents (EtOH/H2O=1/1 (v/v) or DMSO (dimethyl sulfoxide)/EtOH=1/8 (v/v)) were added to form suspensions. The vials were then transferred to 25° C. and stirred for 72 hours. At various time points, the filter cakes were tested by XRPD.
# [4] = Solid-state stability study, influencing factor test of crystal form A; format: physicochemical
# Method: The glass dish or glass vial was then subjected to different environments in a constant temperature and humidity chamber. The conditions include: illumination: 4500±500 Lux; high temperature: 60° C. (sealed); and high humidity: 25° C. with relative humidity RH=90±5% (open).
# [5] = Hygroscopicity study of crystal form A by dynamic vapor sorption (DVS); format: physicochemical; settings: for Desorption (%) / Sorption (%): DVS
# Method: The important hygroscopicity of this compound was tested using a dynamic vapor sorption (DVS) instrument. DVS is a dynamic measurement method, so during the measurement process, the sample will undergo a change in mass. Like other types of research methods, DVS records the change in mass of the sample as the relative humidity changes.
# [6] = Pharmacokinetic test in rats, oral gavage; format: in vivo, Sprague-Dawley rats
# Method: Subsequently, 976 μL of Tween 80 was added and vortexed for 30 seconds, followed by the addition of 488 μL of Kolliphor HS15 (Kolliphor HS15 was used after heating and melting at 50° C.) and vortexed for 30 seconds. Finally, […] of saline was added and vortexed for 30 seconds, followed by ultrasonication for 10 seconds to remove bubbles. The resulting administration preparation was a suspension.
# Subsequently, 1034 μL of Tween 80 was added and vortexed for 30 seconds, followed by the addition of 517 μL of Kolliphor HS15 (Kolliphor HS15 was used after heating and melting at 50° C.) and vortexed for 30 seconds. Finally, 8270 μL of saline was added and vortexed for 30 seconds, followed by ultrasonication for 10 seconds to remove bubbles. The resulting administration preparation was a suspension.
# Species and Strain: Sprague-Dawley rats (SD rats) (Zhejiang Vital River Laboratory Animal Technology Co., Ltd.) • Animal Grade: SPF level
# Planned initial body weight for administration: Male 200-250 g. Actual animal weights will be listed in the raw records. • Number and Gender of Animals: 3 (3 per group), male
# Based on measured body weights, animals with similar weights were divided into groups of 3 animals each. Blank group animals were used for the collection of blank biological matrices.
# • Administration route: Oral gavage • Administration volume: 10 mL/kg • Administration frequency: Single dose • Administration method: The test sample was administered orally via gavage using an appropriate syringe and gavage tube. When using a 2 mL or 5 mL syringe, the administration volume was recorded to one decimal place. When the minimum graduation value of the syringe was 0.2 mL and the administration volume was between two graduation marks, the higher volume was selected for administration.
# Sample collection: Approximately 0.30 mL of whole blood was collected from the orbital vein of Group 1 animals at each time point.
# The experimental animals were fasted for 12 hours before administration, with free access to water. Blood samples were collected from Group 1 animals (oral gavage group) at 5 min, 15 min, 30 min, 1 h, 2 h, 4 h, 6 h, 8 h, and 24 h after administration.
# Sample processing: The collected venous blood was immediately transferred to EDTA-Na2-coated EP tubes (stored in a refrigerator or in an ice box with crushed ice at 2-8° C. prior to use), inverted at least 5 times for thorough mixing, and temporarily stored in an ice box with crushed ice. The collected whole blood was centrifuged at 2000 g for 10 min under 2-8° C. conditions within 2 h to separate plasma, which was then placed in newly labeled centrifuge tubes and stored at −20° C.
# The pharmacokinetics group of the Department of Pharmacology and Toxicology conducted the analysis and measurement of all samples, followed by data summarization. Plasma concentration data were analyzed using the pharmacokinetic data analysis software WinNonlin. Non-compartmental analysis (NCA) was employed to calculate pharmacokinetic parameters such as t1/2, Cmax, Tmax, Vd, CL, AUC0-24, and F. The detailed results are shown in the following table: […]
# [7] = tested on: MV4-11 cells; assay: Killing activity against MV4-11 cells (CellTiter-Glo, CTG); format: cell-based; settings: Homo sapiens, 72 hours incubation, read-out: IC50 of cell killing activity against MV4-11
# From the text: Reagent and consumable information is as follows: • MV4-11 Cells (ATCC, Cat. No. CRL-9591) • DPBS (Dulbecco's Phosphate Buffered Saline, Biosera, Cat. No. LM-S2041/500) • IMDM Medium (Thermo, Cat. No. 12440053) • Fetal Bovine Serum (Biological, Cat. No. 04-002-1A) • Penicillin-Streptomycin Solution (Invitrogen, Cat. No. 15140122) • Dimethyl Sulfoxide (Sigma, Cat. No. D2650) • CellTiter-Glo Luminescent Cell Viability Assay (Promega, Cat. No. G7573) • 96-Well Plate (Corning, Cat. No. 3903)
# 1. MV-4-11 cells were cultured in a complete IMDM medium (IMDM+10% fetal bovine serum+1% Penicillin-Streptomycin, a mixture of penicillin and streptomycin).
# 2. MV-4-11 cells with good cell status were collected and washed twice with DPBS (Dulbecco's phosphate buffered saline).
# 3. MV-4-11 cells were resuspended in a complete IMDM medium, adjusted to a cell density of 1.11×10^6 cells/mL, and 90 μL of the mixture was added to each well of a 96-well plate.
# 4. A 10-fold concentration of the compound solution was prepared in a complete IMDM medium, and 10 μL of the 10-fold concentration of the compound solution was added to each well of the 96-well plate. After mixing well, the 96-well plate was incubated in a 37° C., 5% CO2 incubator for 72 hours.
# 5. […]
# 6. The 96-well plate was removed and equilibrated at room temperature for 10 minutes, and then the chemiluminescence value was measured using a microplate reader.
# [8] = rats, PO, 40 mpk, single dose, plasma
smiles,measurement,setting,value
CC(C)(O)CCn1cc2cc(NC(=O)c3coc(-c4ccnc(C(F)(F)F)c4)n3)c(C(C)(C)O)cc2n1 [crystal form A],Crystal form after high-pressure treatment (XRPD),[1],has not changed
same,"Crystal form after simulated granulation (XRPD, DSC)",[2],have not changed
same,XRPD of solid after suspension competition,[3]; 24 hours,Crystal Form C
same,XRPD of solid after suspension competition,[3]; 48 hours,Crystal Form C
same,XRPD of solid after suspension competition,[3]; 72 hours,Crystal Form C
same,XRPD,[3]; 24 hours,Crystal Form A
same,XRPD,[3]; 48 hours,Crystal Form A
same,XRPD,[3]; 72 hours,Crystal Form A
same,Purity,"[4]; High Relative Humidity (RH = 90 ± 5%, Open, 25° C.), 5 Days",99.60%
same,Purity,"[4]; High Relative Humidity (RH = 90 ± 5%, Open, 25° C.), 11 Days",99.56%
same,Purity,"[4]; High Temperature (60° C., Sealed), 5 Days",99.26%
same,Purity,"[4]; High Temperature (60° C., Sealed), 11 Days",99.67%
same,Purity,"[4]; Strong Illumination (Open), 5 Days",99.67%
same,Purity,"[4]; Strong Illumination (Open), 11 Days",99.44%
same,Solid-state stability evaluation,"[4]; illumination 4500±500 Lux, 60° C. sealed, 25° C. RH=90±5% open",good physical and chemical properties
same,Purity,"[4]; initial, before stress",99.70%
same,Change in crystal form before and after DVS testing (XRPD),[5],no change in crystal form
same,"Hygroscopicity (DVS), in words","[5]; 25° C., up to 90 RH",low hygroscopicity
same,Moisture sorption (DVS),"[5]; 25° C./90 RH, two sorption-desorption curves",less than 0.0400
same,Desorption (%),"[5]; first cycle, 0% RH",−0.01%
same,Sorption (%),"[5]; first cycle, 0% RH",0.00%
same,Desorption (%),"[5]; first cycle, 10% RH",0.00%
same,Sorption (%),"[5]; first cycle, 10% RH",−0.01%
same,Desorption (%),"[5]; first cycle, 20% RH",0.00%
same,Sorption (%),"[5]; first cycle, 20% RH",0.00%
same,Desorption (%),"[5]; first cycle, 30% RH",0.00%
same,Sorption (%),"[5]; first cycle, 30% RH",0.00%
same,Desorption (%),"[5]; first cycle, 40% RH",0.01%
same,Sorption (%),"[5]; first cycle, 40% RH",0.00%
same,Desorption (%),"[5]; first cycle, 50% RH",0.02%
same,Sorption (%),"[5]; first cycle, 50% RH",0.01%
same,Desorption (%),"[5]; first cycle, 60% RH",0.02%
same,Sorption (%),"[5]; first cycle, 60% RH",0.01%
same,Desorption (%),"[5]; first cycle, 70% RH",0.03%
same,Sorption (%),"[5]; first cycle, 70% RH",0.02%
same,Desorption (%),"[5]; first cycle, 80% RH",0.03%
same,Sorption (%),"[5]; first cycle, 80% RH",0.03%
same,Desorption (%),"[5]; first cycle, 90% RH",0.03%
same,Sorption (%),"[5]; first cycle, 90% RH",0.03%
same,Desorption (%),"[5]; second cycle, 0% RH",−0.01%
same,Sorption (%),"[5]; second cycle, 0% RH",−0.01%
same,Desorption (%),"[5]; second cycle, 10% RH",−0.01%
same,Sorption (%),"[5]; second cycle, 10% RH",−0.01%
same,Desorption (%),"[5]; second cycle, 20% RH",0.00%
same,Sorption (%),"[5]; second cycle, 20% RH",−0.01%
same,Desorption (%),"[5]; second cycle, 30% RH",0.00%
same,Sorption (%),"[5]; second cycle, 30% RH",−0.01%
same,Desorption (%),"[5]; second cycle, 40% RH",0.01%
same,Sorption (%),"[5]; second cycle, 40% RH",0.00%
same,Desorption (%),"[5]; second cycle, 50% RH",0.01%
same,Sorption (%),"[5]; second cycle, 50% RH",0.01%
same,Desorption (%),"[5]; second cycle, 60% RH",0.02%
same,Sorption (%),"[5]; second cycle, 60% RH",0.01%
same,Desorption (%),"[5]; second cycle, 70% RH",0.03%
same,Sorption (%),"[5]; second cycle, 70% RH",0.02%
same,Desorption (%),"[5]; second cycle, 80% RH",0.03%
same,Sorption (%),"[5]; second cycle, 80% RH",0.02%
same,Desorption (%),"[5]; second cycle, 90% RH",0.03%
same,Sorption (%),"[5]; second cycle, 90% RH",0.03%
same,Moisture Sorption,"[5]; at 90% RH, DVS 25° C.",Moisture Sorption of 0.03% at 90% RH
CC(C)(O)CCn1cc2cc(NC(=O)c3coc(-c4ccnc(C(F)(F)F)c4)n3)c(C(C)(C)O)cc2n1 [formula I],AUC(0-t),"[6]; male, Sprague-Dawley, rat, 40 mg/kg, rats, PO, 40 mpk, single dose, plasma, read-out: AUC0-24",4880 ng·h/mL
same,Cmax,"[6]; male, Sprague-Dawley, rat, 40 mg/kg, rats, PO, 40 mpk, single dose, plasma, read-out: Cmax",934 ng/mL
same,IC50,[7],21 nM
CC(C)(O)CCn1cc2cc(NC(=O)c3coc(-c4ccnc(C(F)(F)F)c4)n3)c(C(C)(C)O)cc2n1.Cl [hydrochloride salt],Plasma concentration and exposure compared with the free base,"[6]; SD rats, single oral gavage, 4 mg/mL suspension, 10 mL/kg",significantly increase
same,AUC0-24,[6]; [8],27508.69 ng·h/mL
same,Cmax,[6]; [8],5117.67 ng/mL
